Read-outs that look alike come from different tables or passages of the source.
Experiments:
[1] = molecular target: T1, catalytic domain of human Bub1 (amino acids 704-1085) (Homo sapiens, UniProt O43683); assay: Bub1 kinase assay (TR-FRET); format: biochemical
T1 construct: catalytic domain of human Bub1 (amino acids 704-1085); His6 (N); made in house; host or cells: Hi5 insect cells
Experimental: To this end, 100-fold concentrated compound solutions (in DMSO) were previously prepared by serial dilution (1:3.4) of 2 mM stocks in a clear low volume 384-well source microtiter plate (Greiner Bio-One, Frickenhausen, Germany), from which 50 nL of compounds were transferred into a black low volume test microtiter plate from the same supplier. […] The resulting mixture (5 μL final volume) was incubated at 22° C. during 60 min., and the reaction was stopped by the addition of 5 μL of an aqueous EDTA-solution (50 mM EDTA, in 100 mM HEPES pH 7.5 and 0.2% (w/v) bovine serum albumin) which also contained the TR-FRET detection reagents (0.2 μM streptavidin-XL665 [Cisbio Bioassays, Codolet, France] and 1 nM anti-phoshoSerine antibody [Merck Millipore, cat. #35-001] and 0.4 nM LANCE EU-W1024 labeled anti-mouse IgG antibody [Perkin-Elmer, product no. AD0077, alternatively a Terbium-cryptate-labeled anti-mouse IgG antibody from Cisbio Bioassays can be used]). The stopped reaction mixture was further incubated 1 h at 22° C. in order to allow the formation of complexes between peptides and detection reagents. Subsequently, the amount of product was evaluated by measurement of the resonance energy transfer from the Eu-chelate-antibody complex recognizing the Phosphoserine residue to the streptavidin-XL665 bound to the biotin moiety of the peptide.

HeLa cell line = assay: Proliferation assay (HeLa cell line); format: cell-based; details: Homo sapiens, 96 h, read-out: Biological Assay 2: Proliferation assay (HeLa cell line) median IC50
Experimental: Cultivated tumor cells (cells were ordered from ATCC, except HeLa-MaTu and HeLa-MaTu-ADR, which were ordered from EPO-GmbH, Berlin) were plated at a density of 1000 to 5000 cells/well, depending on the growth rate of the respective cell line, in a 96-well multititer plate in 200 μL of their respective growth medium supplemented 10% fetal calf serum. After 24 hours, the cells of one plate (zero-point plate) were stained with crystal violet (see below), while the medium of the other plates was replaced by fresh culture medium (200 μL), to which the test substances were added in various concentrations (0 μM, as well as in the range of 0.001-10 μM; the final concentration of the solvent dimethyl sulfoxide was 0.5%). The cells were incubated for 4 days in the presence of test substances. Cell proliferation was determined by staining the cells with crystal violet: the cells were fixed by adding 20 μL/measuring point of an 11% glutaric aldehyde solution for 15 minutes at room temperature. After three washing cycles of the fixed cells with water, the plates were dried at room temperature. The cells were stained by adding 100 μL/measuring point of a 0.1% crystal violet solution (pH 3.0). After three washing cycles of the stained cells with water, the plates were dried at room temperature. The dye was dissolved by adding 100 μl/measuring point of a 10% acetic acid solution. Absorbtion was determined by photometry at a wavelength of 595 nm. The change of cell number, in percent, was calculated by normalization of the measured values to the absorbtion values of the zero-point plate (=0%) and the absorbtion of the untreated (0 μm) cells (=100%). The IC50 values were determined by means of a 4 parameter fit.

[2] = 4 days incubation, crystal violet staining
[3] = 10 μM ATP, 1 μM peptide substrate, TR-FRET, read-out: Biological Assay 1: Bub1 kinase assay median IC50

T1 sequence (O43683 704-1085): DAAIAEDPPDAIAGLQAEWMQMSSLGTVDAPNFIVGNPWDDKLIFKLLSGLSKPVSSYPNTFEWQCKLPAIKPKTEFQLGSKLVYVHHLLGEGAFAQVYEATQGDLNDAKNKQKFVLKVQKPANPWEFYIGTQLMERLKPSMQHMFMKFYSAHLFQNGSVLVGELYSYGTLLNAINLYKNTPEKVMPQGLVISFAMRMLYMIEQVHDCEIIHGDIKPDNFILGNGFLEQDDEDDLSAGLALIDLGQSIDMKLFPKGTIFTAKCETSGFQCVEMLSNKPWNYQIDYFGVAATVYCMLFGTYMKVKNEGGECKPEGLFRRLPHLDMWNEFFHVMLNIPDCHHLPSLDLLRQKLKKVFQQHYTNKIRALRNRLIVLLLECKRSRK

| Structure (SMILES) | IC50 [1] [µM] | IC50 (HeLa cell line; [2]) [µM] | IC50 [1, 3] [µM] | IC50 (HeLa cell line) [µM] |
| --- | --- | --- | --- | --- |
| CCOc1cc(F)c(Cn2nc(-c3nc(Nc4ccncn4)c(OCCOC)c(Nc4ccncn4)n3)c(C)c2C2CC2)c(F)c1 [Example 2-2-13, 2-[5-cyclopropyl-1-(4-ethoxy-2,6-difluorobenzyl)-4-methyl-1H-pyrazol-3-yl]-5-(2-methoxyethoxy)-N,N′-di(pyrimidin-4-yl)pyrimidine-4,6-diamine] | 0.12 | 10 |  |  |
| CCOc1cc(F)c(Cn2nc(-c3nc(NC(=O)NC4CCCCC4)c(N4CCOCC4)c(Nc4ccncc4)n3)c(C)c2C2CC2)c(F)c1 [Example 2-1-20, 1-cyclohexyl-3-{2-[5-cyclopropyl-1-(4-ethoxy-2,6-difluorobenzyl)-4-methyl-1H-pyrazol-3-yl]-5-(morpholin-4-yl)-6-(pyridin-4-ylamino)pyrimidin-4-yl}urea] | 0.92 | 3.3 |  |  |
| CCOc1cc(F)c(Cn2nc(-c3nc(N)c(NC(=O)COC)c(Nc4ccncc4)n3)c(C)c2C2CC2)c(F)c1 [Example 2-1-27, N-{4-amino-2-[5-cyclopropyl-1-(4-ethoxy-2,6-difluorobenzyl)-4-methyl-1H-pyrazol-3-yl]-6-(pyridin-4-ylamino)pyrimidin-5-yl}-2-methoxyacetamide] |  |  | 0.016 | > 10 |
| CCOc1cc(F)c(Cn2nc(-c3nc(N)c(N4CCOCC4)c(Nc4ccncn4)n3)c(C)c2C2CC2)c(F)c1 [Example 2-1-7, 2-[5-cyclopropyl-1-(4-ethoxy-2,6-difluorobenzyl)-4-methyl-1H-pyrazol-3-yl]-5-(morpholin-4-yl)-N-(pyrimidin-4-yl)pyrimidine-4,6-diamine] |  |  | 0.0098 | 5.3 |
| CCOc1cc(F)c(Cn2nc(-c3nc(NC(=O)NC4CCCCC4)c(OC)c(Nc4ccncc4)n3)c(C)c2C2CC2)c(F)c1 [Example 2-1-16, 1-cyclohexyl-3-{2-[5-cyclopropyl-1-(4-ethoxy-2,6-difluorobenzyl)-4-methyl-1H-pyrazol-3-yl]-5-methoxy-6-(pyridin-4-ylamino)pyrimidin-4-yl}urea] | 0.34 | 3.3 |  |  |
| CCOc1cc(F)c(Cn2nc(-c3nc(N)c(NC(=O)COC)c(Nc4ccncn4)n3)c(C)c2C2CC2)c(F)c1 [Example 2-1-28, N-{4-amino-2-[5-cyclopropyl-1-(4-ethoxy-2,6-difluorobenzyl)-4-methyl-1H-pyrazol-3-yl]-6-(pyrimidin-4-ylamino)pyrimidin-5-yl}-2-methoxyacetamide] | 0.013 | 10 |  |  |
| CCNC(=O)Nc1nc(-c2nn(Cc3c(F)cc(OCC)cc3F)c(C3CC3)c2C)nc(Nc2ccncn2)c1N1CCOCC1 [Example 2-1-19, 1-{2-[5-cyclopropyl-1-(4-ethoxy-2,6-difluorobenzyl)-4-methyl-1H-pyrazol-3-yl]-5-(morpholin-4-yl)-6-(pyrimidin-4-ylamino)pyrimidin-4-yl}-3-ethylurea] |  |  | 2.1 | 5.6 |
| CCOc1cc(F)c(Cn2nc(-c3nc(Nc4ccncc4)c(NS(=O)(=O)CC)c(Nc4ccncc4)n3)c(C)c2C2CC2)c(F)c1 [Example 2-2-17, N-{2-[5-cyclopropyl-1-(4-ethoxy-2,6-difluorobenzyl)-4-methyl-1H-pyrazol-3-yl]-4,6-bis(pyridin-4-ylamino)pyrimidin-5-yl}ethanesulfonamide] |  |  | 0.76 | > 10 |
| CCOc1cc(F)c(Cn2nc(-c3nc(NC(=O)NC4CCCCC4)c(N4CCOCC4)c(Nc4ccncn4)n3)c(C)c2C2CC2)c(F)c1 [Example 2-1-21, 1-cyclohexyl-3-{2-[5-cyclopropyl-1-(4-ethoxy-2,6-difluorobenzyl)-4-methyl-1H-pyrazol-3-yl]-5-(morpholin-4-yl)-6-(pyrimidin-4-ylamino)pyrimidin-4-yl}urea] |  |  | 1.4 | 7.4 |
| CCOc1cc(F)c(Cn2nc(-c3nc(Nc4ccncc4)c(NC(=O)COC)c(Nc4ccncc4)n3)c(C)c2C2CC2)c(F)c1 [Example 2-2-14, N-{2-[5-cyclopropyl-1-(4-ethoxy-2,6-difluorobenzyl)-4-methyl-1H-pyrazol-3-yl]-4,6-bis(pyridin-4-ylamino)pyrimidin-5-yl}-2-methoxyacetamide] |  |  | 0.35 | 2.8 |
| CCOc1cc(F)c(Cn2nc(-c3nc(N)nc(Nc4ccnnc4)n3)c(C)c2C2CC2)c(F)c1 [Example 2-1-24, 6-[5-cyclopropyl-1-(4-ethoxy-2,6-difluorobenzyl)-4-methyl-1H-pyrazol-3-yl]-N-(pyridazin-4-yl)-1,3,5-triazine-2,4-diamine] | 0.13 | 6 |  |  |
| C=CC(=O)Nc1cc(Nc2ccncc2)nc(-c2nn(Cc3c(F)cc(OCC)cc3F)c(C3CC3)c2C)n1 [Example 2-1-22, N-{2-[5-cyclopropyl-1-(4-ethoxy-2,6-difluorobenzyl)-4-methyl-1H-pyrazol-3-yl]-6-(pyridin-4-ylamino)pyrimidin-4-yl}prop-2-enamide] | 0.059 | 9.8 |  |  |
| CCOc1cc(F)c(Cn2nc(-c3nc(N)c(NS(=O)(=O)CC)c(Nc4ccncc4)n3)c(C)c2C2CC2)c(F)c1 [Example 2-1-30, N-{4-amino-2-[5-cyclopropyl-1-(4-ethoxy-2,6-difluorobenzyl)-4-methyl-1H-pyrazol-3-yl]-6-(pyridin-4-ylamino)pyrimidin-5-yl}ethanesulfonamide] |  |  | 0.0088 | > 10 |
| CCOc1cc(F)c(Cn2nc(-c3nc4c(c(Nc5ccncn5)n3)OCC(=O)N4)c(C)c2C2CC2)c(F)c1 [Example 2-1-33, 2-[5-cyclopropyl-1-(4-ethoxy-2,6-difluorobenzyl)-4-methyl-1H-pyrazol-3-yl]-4-(pyrimidin-4-ylamino)-6H-pyrimido[5,4-b][1,4]oxazin-7(8H)-one] |  |  | 0.034 | 10 |
| CCOc1cc(F)c(Cn2nc(-c3nc(N)c(N4CCOCC4)c(Nc4ccncc4)n3)c(C)c2C2CC2)c(F)c1 [Example 2-1-6, 2-[5-cyclopropyl-1-(4-ethoxy-2,6-difluorobenzyl)-4-methyl-1H-pyrazol-3-yl]-5-(morpholin-4-yl)-N-(pyridin-4-yl)pyrimidine-4,6-diamine] |  |  | 0.012 | 5.2 |
| CCOc1cc(F)c(Cn2nc(-c3nc(N)c(OC)c(Nc4ccncc4)n3)c(C)c2C2CC2)c(F)c1 [Example 2-1-4, 2-[5-cyclopropyl-1-(4-ethoxy-2,6-difluorobenzyl)-4-methyl-1H-pyrazol-3-yl]-5-methoxy-N-(pyridin-4-yl)pyrimidine-4,6-diamine] |  |  | 0.0048 | 3.5 |
| CCOc1cc(F)c(Cn2nc(-c3nc(N)cc(Nc4ccnnc4)n3)c(C)c2C2CC2)c(F)c1 [Example 2-1-23, 2-[5-cyclopropyl-1-(4-ethoxy-2,6-difluorobenzyl)-4-methyl-1H-pyrazol-3-yl]-N-(pyridazin-4-yl)pyrimidine-4,6-diamine] |  |  | 0.018 | 6 |
| CCOc1cc(F)c(Cn2nc(-c3nc(N)c(OCCOC)c(Nc4ccncc4)n3)c(C)c2C2CC2)c(F)c1 [Example 2-1-25, 2-[5-cyclopropyl-1-(4-ethoxy-2,6-difluorobenzyl)-4-methyl-1H-pyrazol-3-yl]-5-(2-methoxyethoxy)-N-(pyridin-4-yl)pyrimidine-4,6-diamine] |  |  | 0.01 | 3 |
| CCOc1cc(F)c(Cn2nc(-c3nc4c(c(Nc5ccncc5)n3)OCC(=O)N4)c(C)c2C2CC2)c(F)c1 [Example 2-1-32, 2-[5-cyclopropyl-1-(4-ethoxy-2,6-difluorobenzyl)-4-methyl-1H-pyrazol-3-yl]-4-(pyridin-4-ylamino)-6H-pyrimido[5,4-b][1,4]oxazin-7(8H)-one] |  |  | 0.012 | > 10 |
| CCOc1cc(F)c(Cn2nc(-c3nc(N)cc(Nc4ccncn4)n3)c(C)c2C2CC2)c(F)c1 [Example 2-1-3, 2-[5-cyclopropyl-1-(4-ethoxy-2,6-difluorobenzyl)-4-methyl-1H-pyrazol-3-yl]-N-(pyrimidin-4-yl)pyrimidine-4,6-diamine] |  |  | 0.0063 | 3.1 |

Source: patent publication US20160145267A1, “HETEROARYL SUBSTITUTED PYRAZOLES” (BAYER PHARMA AKTIENGESELLSCHAFT, priority 2013, published 2016)
